Measurements from patent publication US10941126B2, “Bridged bicycloalkyl-substituted aminothiazoles and their methods of use” (Temple University—Of The Commonwealth System of Higher …, priority 2017, dated 2021).

Assays:
YB5 cells [1] = assay: GFP reactivation in YB5 cells (flow cytometry); type: cell-based, human; conditions: for GFP reactivation activity: multiple doses, four-day drug treatment in YB5
YB5 cells [2] = assay: RNA-seq in YB5 cells; type: cell-based, human; conditions: after excluding early response genes
Protocol: RNA from experiments in biological triplicates was isolated using RNeasy Mini Plus Kit (QIAGEN) following the manufacturer's instructions. Strand-specific RNA libraries were generated from 1 μg of RNA using TruSeq stranded total RNA with Ribo-Zero Gold (Illumina). Sequencing was performed using single end reads (50 bp, average 50 million reads per sample) on the HiSeq2500 platform (Illumina) at Fox Chase Cancer Center Genomic Facility. Sequenced reads were aligned to the hg19 genome assembly using TopHat2 (Kim, D., Pertea, G., Trapnell, C., Pimentel, H., Kelley, R., and Salzberg, S. L. (2013). Genome Biol 14, R36). The expression level and fold change of each treatment group was evaluated using EdgeR (Robinson, M. D., McCarthy, D. J., and Smyth, G. K. (2010), Bioinformatics 26, 139-140). Genes that had 0 reads across all samples were excluded. In order to get rid of batch effects, samples were normalized using RUVr method from the RUVseq package (Risso, D., Ngai, J., Speed, T. P., and Dudoit, S. (2014). Normalization of RNA-seq data using factor analysis of control genes or samples. Nat Biotechnol 32, 896-902). RNA data were deposited in the GEO database with the accession number GSE104837.

YB5 cells [3] = assay: GFP reactivation in YB5 cells (flow cytometry); type: cell-based, human; conditions: for Emax at 1 µM / Emax at 5 µM / Emax at 10 µM / Emax at 25 µM: Homo sapiens, 24 h; for Emax at 1 µM: read-out: relative activity to Depsipeptide @ 1 μM %; for Emax at 5 µM: read-out: relative activity to Depsipeptide @ 5 μM %; for Emax at 10 µM: read-out: relative activity to Depsipeptide @ 10 μM %; for Emax at 25 µM: read-out: relative activity to Depsipeptide @ 25 μM %
Description: To screen the compounds of the invention for epigenetic anti-cancer activity the YB5 cell-based system, which is derived from the human colon cancer cell line SW48, was used (Si et al., 2010, Cancer Res. 70:6968-6977; Raynal et al., 2012, Cancer Res. 72:1170-1181). YB5 cells contain a single insertion of cytomegalovirus (CMV) promoter driving green fluorescent protein (GFP) gene. GFP expression is silenced in >99.9% of YB5 cells by epigenetic mechanisms. In YB5 cells, the inserted GFP gene behaves similarly to endogenous tumor suppressor genes (TSGs) silenced by epigenetic mechanisms, and it can be reactivated by epigenetic anti-cancer agents such as DNA methylation inhibitors and/or HDAC inhibitors such as depsipeptide (Si et al., 2010, Cancer Res. 70:6968-6977; Raynal et al., 2012, Cancer Research, 72:1170-1181; Wu et al., 2008, Mol. Cell Biol, 28:3219-3235). Thus, reactivation of GFP expression and the resulting fluorescence is a measure of epigenetic anti-cancer activity.
The following procedure may be used to identify compounds of useful in the invention. YB5 cells cultured in L-15 medium supplemented with 10% fetal bovine serum and 1% P/S are treated for 24 hours with varying concentrations (50 nM, 100 nM, 500 nM, 1 μM, 5 μM, 10 μM, 25 μM, and 50 μM) of test compounds. After treatment, cells are trypsinized and re-suspended in cell culture media with propidium iodide (PI) to stain dead cells. Reactivation of GFP is measured using flow cytometry to identify the GFP positive population. The relative activities are expressed as the percent of the response compared to treatment with 20 nM HDACi depsipeptide for 24 hours. YB5 cells are grown in 1% CO2 atmosphere at 37° C.
NDL-3040 compound library consists of 3040 chemically diverse compounds that are semi-natural, derived from natural compounds, or synthetic compounds that are natural-compound-like. The small molecules were arrayed in 96-well plates as 10 mM stocks in 100% DMSO and were purchased from TimTec Inc. An aminothiazole analog library (93 small molecules) was also purchased from the same vendor and was in a 96-well plate format as 10 mM stocks in 100% DMSO. The 3040 compounds were screened at 25 μM for 24 hr. All plates were kept at −80° C. before use. YB5 cells growing in log phase (70-80% confluency) in 96-well plates were used. Each experimental 96-well plate contained 80 different compounds. Compounds were dispensed using an INTEGRA VIAFLO96 96-well pipette. After a 24 hr drug treatment, cells were trypsinized for 10 mins and re-suspended in L-15 medium containing propidium iodide (PI) to stain for dead cells. A total of 10000 cells per well were analyzed using Millipore Guava flow cytometer (EMD, Millipore). GFP positive percentage was calculated by excluding all the PI positive cells. After finishing the screening, the average Z-factor
For drug screening and dose response validations, GFP positive cells were detected by Millipore Guava flow cytometer (EMD, Millipore). Cell cycle analysis was performed using BD FACSCalibur™ by propidium iodide staining four days after drug treatment. Sub-G1 population percentage was also included to measure apoptotic cell proportion. Data were analyzed using FlowJo software version 10.2. For the cell differentiation analysis, cells were washed and stained with propidium iodide (PI), CD11 b (BD Biosciences, #562793) and the isotype control IgG (BD Biosciences, #555748). Flow cytometry analysis was performed on a Millipore Guava flow cytometer (EMD, Millipore). For the ID8 in vivo experiments, ascites was drained from 5-10 mice per group and incubated in ACK buffer (Thermo Fisher) to lyse red blood cells for 10 minutes, then washed. Ascites from each mouse was individually lysed and prepared for flow cytometry. Mononuclear cells collected were cultured for 4 hours in RPMI with 5% Fetal Bovine Serum and in the presence of Cell Stimulation Cocktail (plus protein transport inhibitors; eBioscience). […]

ID8 = ID8 ovarian cancer syngeneic immunocompetent mouse model; type: in vivo
Protocol: For drug screening and dose response validations, GFP positive cells were detected by Millipore Guava flow cytometer (EMD, Millipore). Cell cycle analysis was performed using BD FACSCalibur™ by propidium iodide staining four days after drug treatment. Sub-G1 population percentage was also included to measure apoptotic cell proportion. Data were analyzed using FlowJo software version 10.2. For the cell differentiation analysis, cells were washed and stained with propidium iodide (PI), CD11 b (BD Biosciences, #562793) and the isotype control IgG (BD Biosciences, #555748). Flow cytometry analysis was performed on a Millipore Guava flow cytometer (EMD, Millipore). For the ID8 in vivo experiments, ascites was drained from 5-10 mice per group and incubated in ACK buffer (Thermo Fisher) to lyse red blood cells for 10 minutes, then washed. Ascites from each mouse was individually lysed and prepared for flow cytometry. Mononuclear cells collected were cultured for 4 hours in RPMI with 5% Fetal Bovine Serum and in the presence of Cell Stimulation Cocktail (plus protein transport inhibitors; eBioscience). Cells were then washed and stained for cell surface markers including Live/Dead (eBioscience #65-0865-18), CD45 (BD Biosciences, #563891), CD3 (BD Biosciences, #560527), MHC II (Biolegend #107619, Isotype Control #400627), CD80 (BD Biosciences, #553769), CD86 (BD Biosciences, #558703) and CD11c (BD Biosciences, #564079). Flow cytometry acquisition was performed on an LSRII cytometer (BD Biosciences) and data were analyzed using FlowJo software version 10.2.
2.5×10^5 ID8-VEGF-Defensin cells were injected i.p. into 7-8-week-old female C57BL/6NHsd (C57Bl/6) mice. Three days after injection, 1 mg/kg SNS-032, 10 mg/kg SNS-032, or 5% DMSO in PBS (vehicle control) was administered i.p. every 3 days for the duration of the experiment. α-PD-1 (200 ug/mouse) or IgG control were given on days 17, 20, 24, and 27 after injection. α-PD-1 (1 mg/mL in saline) was utilized. Mouse IgG isotype control was purchased from Leinco Technologies and diluted in PBS.

YB5 cells [4] = assay: qPCR gene expression in YB5 cells; type: cell-based, human; conditions: 24 hr treatment
Protocol: Total RNA was extracted using TRIzol reagent (Invitrogen) following the manufacturer's protocol and RNA concentrations were measured using Nanodrop. cDNAs were synthesized using High Capacity cDNA Reverse Transcription Kit (ThermoFisher) and qPCR was performed using either ready-made TaqMan® assays or SYBR-green using custom-designed primers. All the data were analyzed using Applied Biosystems software (StepOne™ Software V2.3). For all experiments, relative expression levels of the target genes were determined by calculating the 2^−ΔΔCt values. All experiments were performed at least in triplicates. Either GAPDH or 18S rRNA was used as an internal normalization control for protein coding genes. RPLPO was used as an internal normalization control for ERVs. All SYBR-green primers were described previously and are listed in Table 1 along with TaqMan® probes used.

Row | SMILES | Emax at 1 µM (YB5 cells [3]) | Emax at 5 µM (YB5 cells [3]) | Emax at 10 µM (YB5 cells [3]) | Emax at 25 µM (YB5 cells [3]) | relative activity to Depsipeptide @ 500 nM % (YB5 cells [3]) | also measured
1 | Cc1c[nH]c(-c2cnc(NCCNc3ccc(C#N)cn3)nc2-c2ccc(Cl)cc2Cl)n1 [CHR99021] |  |  |  |  |  | GFP reactivation activity (YB5 cells [1]): no GFP reactivation activity
2 | Nc1ncn([C@H]2C[C@H](O)[C@@H](CO)O2)c(=O)n1 [DAC, decitabine] |  |  |  |  |  | low expressed genes (RPKM<0.31) down (YB5 cells [2]): 7; low expressed genes (RPKM<0.31) up (YB5 cells [2]): 1238
3 | [Cl-].[Li+] [LiCl] |  |  |  |  |  | GFP reactivation activity (YB5 cells [1]): no GFP reactivation activity
4 | COc1cc(C(=O)c2sc(N[C@H]3CC4CCC3C4)nc2N)cc(OC)c1OC (stereo partly drawn) [MC180251, (4-amino-2-(((2S)-bicyclo[2.2.1]heptan-2-yl)amino)thiazol-5-yl)(3,4,5-trimethoxyphenyl)methanone] | 0% | 0% | 0% | 0% |  | relative activity to Depsipeptide @ 50 μM % (YB5 cells [3]): 0.00%
5 | Nc1nc(N[C@H]2C[C@@H]3CC[C@H]2C3)sc1C(=O)c1cc2c(cc1[N+](=O)[O-])OCO2 [MC180300] | 3.87% | 35.6% | 51.6% | 46.9% | 0.68% | 
6 | Nc1nc(N[C@H]2CC3CCC2C3)sc1C(=O)c1cc2c(cc1[N+](=O)[O-])OCCO2 (stereo partly shown) [MC180312] | 9.73% | 35.6% | 42.3% | 9% |  | relative activity to Depsipeptide @ 50 μM % (YB5 cells [3]): 6.38%
7 | Nc1nc(N[C@H]2CC3CCC2C3)sc1C(=O)c1cccc([N+](=O)[O-])c1 (stereo partly shown) [MC180339] | 3.05% | 16.9% | 29.2% | 8.71% | 3.29% | 
8 | Nc1nc(N[C@H]2CC3CCC2C3)sc1C(=O)c1ccc([N+](=O)[O-])cc1 (stereo partly shown) [MC180340] | 2.83% | 13% | 11.6% | 3.41% | 3.54% | 
9 | N#Cc1ccccc1C(=O)c1sc(N[C@H]2CC3CCC2C3)nc1N (stereo partly drawn) [MC180342, 2-(4-amino-2-(((2S)-bicyclo[2.2.1]heptan-2-yl)amino)thiazole-5-carbonyl)benzonitrile] | 22.7% | 107% |  | 78.8% | 10.42% | 
10 | Nc1nc(N[C@H]2CC3CCC2C3)sc1C(=O)c1ccc2nonc2c1 (stereo partly shown) [MC180345] | 3.58% | 3.61% | 3.99% | 12.6% | 1.87% | 
11 | Nc1nc(N[C@H]2CC3CCC2C3)sc1C(=O)c1cccc2nonc12 (stereo partly drawn) [MC180349, (4-amino-2-(((2S)-bicyclo[2.2.1]heptan-2-yl)amino)thiazol-5-yl)(benzo[c][1,2,5]oxadiazol-4-yl)methanone] | 27.5% | 91.2% | 74.5% | 36.6% | 10.98% | 
12 | O=C(/C=C/N1C[C@H]2C[C@@H]1CN2c1ccccn1)c1ccccc1O [PFI-3] |  |  |  |  |  | effect on GFP activation by HH1 or iCDK9 (YB5 cells [1]; 72 hr daily pre-treatment followed by 24 hr co-treatment): inhibited GFP activation
13 | CC(C)(C)c1cnc(CSc2cnc(NC(=O)C3CCNCC3)s2)o1 [SNS-032] |  |  |  |  |  | survival (ID8; 10 mg/kg): extend the survival of the mice significantly; tumor burden (ID8; 10 mg/kg): reduce tumor burden; immune cells (CD45+) and T cells (CD3+) in the tumor microenvironment (ID8; in vivo treatment, ascites fluid, flow cytometry): increased populations
14 | CN1CC[C@H](c2c(O)cc(O)c3c(=O)cc(-c4ccccc4Cl)oc23)[C@H](O)C1 [flavopiridol] |  |  |  |  |  | expression of SYNE1 and MGMT (YB5 cells [4]): gene reactivation
15 | NC1CCC(Nc2cc(-c3cccc(NCc4cccc(F)c4)n3)c(Cl)cn2)CC1 (stereo not shown) [iCDK9] |  |  |  |  |  | expression of SYNE1 and MGMT (YB5 cells [4]): gene reactivation
